Values quoted from earlier work in US6491657B2, “Ultrasound enhancement of transdermal transport” (Sontra Medical, Inc., priority 1996, dated 2002).

Settings: with ethanol as chemical enhancer

C[C@]12CC[C@@H]3c4ccc(O)cc4CC[C@H]3[C@@H]1CC[C@@H]2O [estradiol]
flux increase: 140 fold
